Results: ChEMBL document CHEMBL1148691, “Inhibitors of hepatitis C virus NS3.4A protease. Effect of P4 capping groups on inhibitory potency and pharmacokinetics” (Bioorg Med Chem Lett, 2007)

What was measured:
[1] = Selectivity index, ratio of CC50 for Huh7cells to IC50 for HCV; type: functional
Liver = assay: Drug level in CD1 mouse liver at 50 mg/kg, po; type: ADME, organism-based; parameters: dose 50 mg/kg, route oral; conditions: in vivo, read-out: Activity
[2] = Ratio of drug level in CD1 mouse liver to IC50 for HCV; type: functional, tissue-based
Mus musculus [3] = assay: AUC(0 to 8 hrs) in CD1 mouse liver at 50 mg/kg, po; type: ADME, organism-based; parameters: dose 50 mg/kg, route oral; conditions: in vivo, 6 h
Hepatitis C virus = assay: Inhibition of HCV replicon RNA production in HUh7 cells; type: functional, organism-based, Hepacivirus hominis; conditions: Huh-7
[4] = Cytotoxicity against Huh7 cells by MTS assay; type: cell-based, Huh-7; conditions: human
[5] = Inhibition of HCV NS3 4A protease; parameters: species or system Hepacivirus hominis
Mus musculus [6] = assay: AUC(0 to 8 hrs) in CD1 mouse plasma at 50 mg/kg, po; type: ADME, organism-based; parameters: dose 50 mg/kg, route oral; conditions: in vivo, 6 h
Plasma = assay: Drug level in CD1 mouse plasma at 50 mg/kg, po; type: ADME, organism-based; parameters: dose 50 mg/kg, route oral; conditions: in vivo

concentration (Liver) [nM] | AUC (Mus musculus [3]) [µM·h] | IC50 (Hepatitis C virus) [nM] | Ki [5] [nM] | AUC (Mus musculus [6]) [µM·h] | concentration (Plasma) [nM] | Structure (SMILES) | Selectivity index [1] | Ratio [2] | CC50 [4] [µM]
 |  | > 3000 | 370 |  |  | CCC[C@H](NC(=O)[C@@H]1C[C@@H]2CCCC[C@@H]2N1C(=O)[C@@H](NC(=O)[C@H](C1CCCCC1)N1C(=O)c2ccccc2C1=O)C(C)(C)C)C(=O)C(=O)NC1CC1 |  |  | > 100
 |  | 490 | 120 |  |  | CCC[C@H](NC(=O)[C@@H]1C[C@@H]2CCCC[C@@H]2N1C(=O)[C@@H](NC(=O)[C@@H](NC(=O)c1cc2cc(F)ccc2[nH]1)C1CCCCC1)C(C)(C)C)C(=O)C(=O)NC1CC1 | > 203 |  | > 100
 |  | 270 | 110 |  |  | CCC[C@H](NC(=O)[C@@H]1C[C@@H]2CCCC[C@@H]2N1C(=O)[C@@H](NC(=O)[C@@H](NC(=O)C(=O)NC1CC1)C1CCCCC1)C(C)(C)C)C(=O)C(=O)NC1CC1 | > 375 |  | > 100
60 | 0.47 | 230 | 120 | 0.05 | 10 | CCC[C@H](NC(=O)[C@@H]1C[C@@H]2CCCC[C@@H]2N1C(=O)[C@@H](NC(=O)[C@@H](NC(=O)c1ncc[nH]1)C1CCCCC1)C(C)(C)C)C(=O)C(=O)NC1CC1 | > 442 | 0.26 | > 100
 |  | 400 | 160 |  |  | CCC[C@H](NC(=O)[C@@H]1C[C@@H]2CCCC[C@@H]2N1C(=O)[C@@H](NC(=O)[C@@H](NC(=O)C(=O)NC(C)C)C1CCCCC1)C(C)(C)C)C(=O)C(=O)NC1CC1 | > 249 |  | > 100
 |  | 1200 | 440 |  |  | CCC[C@H](NC(=O)[C@@H]1C[C@@H]2CCCC[C@@H]2N1C(=O)[C@@H](NC(=O)[C@@H](NC(=O)c1cnc2ccccc2n1)C1CCCCC1)C(C)(C)C)C(=O)C(=O)NC1CC1 | > 81 |  | > 100
 |  | 1400 | 240 |  |  | CCC[C@H](NC(=O)[C@@H]1C[C@@H]2CCCC[C@@H]2N1C(=O)[C@@H](NC(=O)[C@@H](NC(=O)c1ccoc1)C1CCCCC1)C(C)(C)C)C(=O)C(=O)NC1CC1 | > 71 |  | > 100
2400 | 19 | 350 | 40 | 3 | 370 | CCC[C@H](NC(=O)[C@@H]1[C@H]2CCC[C@H]2CN1C(=O)[C@@H](NC(=O)[C@@H](NC(=O)c1cnccn1)C1CCCCC1)C(C)(C)C)C(=O)C(=O)NC1CC1 | 230 | 54 | 82
 |  | 1100 | 320 |  |  | CCC[C@H](NC(=O)[C@@H]1C[C@@H]2CCCC[C@@H]2N1C(=O)[C@@H](NC(=O)[C@@H](NC(=O)[C@@H]1Cc2ccccc2N1)C1CCCCC1)C(C)(C)C)C(=O)C(=O)NC1CC1 | > 90 |  | > 100

The next lines start with the compound.

Structure (SMILES) | concentration (Liver) [nM] | AUC (Mus musculus [3]) [µM·h] | IC50 (Hepatitis C virus) [nM] | Ki [5] [nM] | AUC (Mus musculus [6]) [µM·h] | concentration (Plasma) [nM] | Selectivity index [1] | Ratio [2] | CC50 [4] [µM]
CCC[C@H](NC(=O)[C@@H]1C[C@@H]2CCCC[C@@H]2N1C(=O)[C@@H](NC(=O)[C@@H](NC(=O)c1cc([N+](=O)[O-])c[nH]1)C1CCCCC1)C(C)(C)C)C(=O)C(=O)NC1CC1 | 10 | 0.06 | 370 | 50 |  |  | > 270 | 0.03 | > 100
CCC[C@H](NC(=O)[C@@H]1C[C@@H]2CCCC[C@@H]2N1C(=O)[C@@H](NC(=O)[C@@H](NC(=O)c1nccn1C)C1CCCCC1)C(C)(C)C)C(=O)C(=O)NC1CC1 | 260 | 2.1 | > 3000 | 1200 | 1.3 | 170 |  |  | > 100
CCC[C@H](NC(=O)[C@@H]1C[C@@H]2CCCC[C@@H]2N1C(=O)[C@@H](NC(=O)[C@@H](NC(=O)C(=O)NCc1ccccc1)C1CCCCC1)C(C)(C)C)C(=O)C(=O)NC1CC1 |  |  | 260 | 140 |  |  | > 380 |  | > 100
CCC[C@H](NC(=O)[C@@H]1C[C@@H]2CCCC[C@@H]2N1C(=O)[C@@H](NC(=O)[C@@H](NC(=O)c1cnccn1)C1CCCCC1)C(C)(C)C)C(=O)C(=O)NC1CC1 | 360 | 2.9 | 1100 | 150 | 1.5 | 180 | 43 | 0.33 | 47
CCC[C@H](NC(=O)[C@@H]1C[C@@H]2CCCC[C@@H]2N1C(=O)[C@@H](NC(=O)[C@@H](NC(=O)c1ccc[nH]1)C1CCCCC1)C(C)(C)C)C(=O)C(=O)NC1CC1 | 170 | 1.3 | 500 | 90 | 0.36 | 40 | > 201 | 0.34 | > 100
CCC[C@H](NC(=O)[C@@H]1C[C@@H]2CCCC[C@@H]2N1C(=O)[C@@H](NC(=O)[C@@H](NC(=O)C1(O)CCCC1)C1CCCCC1)C(C)(C)C)C(=O)C(=O)NC1CC1 |  |  | 1600 | 640 |  |  | > 64 |  | > 100
CCC[C@H](NC(=O)[C@@H]1C[C@@H]2CCCC[C@@H]2N1C(=O)[C@@H](NC(=O)[C@@H](NC(=O)c1cccnc1)C1CCCCC1)C(C)(C)C)C(=O)C(=O)NC1CC1 |  |  | 1700 | 240 |  |  | > 58 |  | > 100
CCC[C@H](NC(=O)[C@@H]1C[C@@H]2CCCC[C@@H]2N1C(=O)[C@@H](NC(=O)[C@@H](NC(=O)c1ccccn1)C1CCCCC1)C(C)(C)C)C(=O)C(=O)NC1CC1 |  |  | 1900 | 520 |  |  | > 52 |  | > 100
CCC[C@H](NC(=O)[C@@H]1[C@H]2CCC[C@H]2CN1C(=O)[C@@H](NC(=O)[C@@H](NC(=O)c1ncc[nH]1)C1CCCCC1)C(C)(C)C)C(=O)C(=O)NC1CC1 | 1300 | 10.5 | 200 | 30 | 0.36 | 40 |  | 52 | 
